# Test results as given in patent publication US7291612B2, “Immunomodulatory compounds” (Active Biotech A.B., priority 2002, dated 2007).
# Target: T1, CD80-CD28 interaction (Homo sapiens, UniProt P33681)
# T1 construct: mouse Fab fragment (fusion partner)
# T1 sequence (P33681 35-242 limits assumed): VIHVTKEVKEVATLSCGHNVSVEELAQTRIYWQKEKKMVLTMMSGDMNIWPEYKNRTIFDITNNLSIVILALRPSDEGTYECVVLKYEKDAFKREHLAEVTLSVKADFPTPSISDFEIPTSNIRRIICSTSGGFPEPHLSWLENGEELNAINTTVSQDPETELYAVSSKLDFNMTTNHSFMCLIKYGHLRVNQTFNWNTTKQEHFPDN
# Assay: cell free Homogenous Time Resolved Fluorescence (HTRF) assay, inhibition of the CD80-CD28 interaction
# Type: binding
# Conditions: 4 hours at room temperature, read-out: Activity (EC50 in summary form)
# Protocol: The examples described above were tested in a cell free Homogenous Time Resolved Fluorescence (HTRF) assay to determine their activity as inhibitors of the CD80-CD28 interaction.
# In the assay, europium and allophycocyanin (APC) are associated with CD28 and CD80 indirectly (through antibody linkers) to form a complex, which brings the europium and APC into close proximity to generate a signal. The complex comprises the following six proteins: fluorescent label 1, linker antibody 1, CD28 fusion protein, CD80 fusion protein, linker antibody 2, and fluorescent label 2. The table below describes these reagents in greater detail.
# On formation of the complex, europium and APC are brought into proximity and a signal is generated.
# Non-specific interaction was measured by substituting a mouse Fab fragment (C215) for the CD80 mouse Fab fragment fusion protein (1.9 μg/ml). The assay was carried out in black 384 well plates in a final volume of 30 μl. Assay buffer: 50 mM Tris-HCl, 150 mM NaCl pH7.8, containing 0.1% BSA (w/v) added just prior to use.
# Compounds were added to the above reagents in a concentration series ranging between 100 μM-1.7 nM. The reaction was incubated for 4 hours at room temperature. Dual measurements were made using a Wallac Victor 1420 Multilabel Counter. First measurement: excitation 340 nm, emission 665 nm, delay 50 μs, window time 200 μs. second measurement: excitation 340 nm, emission 615 nm, delay 50 μs, window time 200 μs. Counts were automatically corrected for fluorescence crossover, quenching and background.
row,Structure (SMILES),EC50
1,"Cn1cccc1C(=O)Nc1ccc(-n2nc3c4cccc(F)c4[nH]cc-3c2=O)cc1 [Example 3, 1-Methyl-1H-pyrrole-2-carboxylic acid [4-(6-fluoro-3-oxo-3,5-dihydro-pyrazolo[4,3-c]quinolin-2-yl)-phenyl]-amide]",> 10 µM
2,"CCCC(CCC)C(=O)Nc1ccc(-n2nc3c4cccc(F)c4[nH]cc-3c2=O)cc1 [Example 5, 2-Propyl-pentanoic acid [4-(6-fluoro-3-oxo-3,5-dihydro-pyrazolo[4,3-c]quinolin-2-yl)-phenyl]-amide]",> 10 µM
3,O=C(Nc1ccc(-n2nc3c4cccc(F)c4[nH]cc-3c2=O)cc1)c1ccco1 [Example 10],> 10 µM
4,O=C(Nc1ccc(-n2nc3c4cccc(F)c4[nH]cc-3c2=O)cc1)c1ccc(N2CCOCC2)nc1 [Example 11],> 10 µM
5,CCCc1c(C(=O)Nc2ccc(-n3nc4c5cccc(F)c5[nH]cc-4c3=O)cc2)cnn1-c1ccccc1 [Example 14],> 10 µM
6,CC(=O)Nc1ccc(-n2nc3c4cccc(F)c4[nH]cc-3c2=O)cc1 [Example 16],1 to 10 µM
7,CCCCC(CC)C(=O)Nc1ccc(-n2nc3c4cccc(F)c4[nH]cc-3c2=O)cc1 (centres unmarked) [Example 17],> 10 µM
8,O=C(CC1CCCC1)Nc1ccc(-n2nc3c4cccc(F)c4[nH]cc-3c2=O)cc1 [Example 19],1 to 10 µM
9,CC(=O)N1CCC(C(=O)Nc2ccc(-n3nc4c5cccc(F)c5[nH]cc-4c3=O)cc2)CC1 [Example 20],1 to 10 µM
10,O=C(Cc1c(Cl)cccc1Cl)Nc1ccc(-n2nc3c4cccc(F)c4[nH]cc-3c2=O)cc1 [Example 21],1 to 10 µM
11,COC(=O)CCCCCCCCC(=O)Nc1ccc(-n2nc3c4cccc(F)c4[nH]cc-3c2=O)cc1 [Example 23],1 to 10 µM
12,COCCOCC(=O)Nc1ccc(-n2nc3c4cccc(F)c4[nH]cc-3c2=O)cc1 [Example 25],1 to 10 µM

# Second part, the compound after the results:
row,EC50,Structure (SMILES)
1,< 1 µM,"CCC(C)C(=O)Nc1ccc(-n2nc3c4cccc(F)c4[nH]cc-3c2=O)cc1 (centres unmarked) [Example 1, N-[4-(6-Fluoro-3-oxo-3,5-dihydropyrazolo[4,3-c]quinolin-2-yl)-phenyl]-2-methyl-butyramide]"
2,< 1 µM,"CCCC(C)C(=O)Nc1ccc(-n2nc3c4cccc(F)c4[nH]cc-3c2=O)cc1 (centres unmarked) [Example 2, 2-Methyl-pentanoic acid [4-(6-fluoro-3-oxo-3,5-dihydro-pyrazolo[4,3-c]quinolin-2-yl)-phenyl]-amide]"
3,1 to 10 µM,"CC(C)CC(=O)Nc1ccc(-n2nc3c4cccc(F)c4[nH]cc-3c2=O)cc1 [Example 4, N-[4-(6-Fluoro-3-oxo-3,5-dihydro-pyrazolo[4,3-c]quinolin-2-yl)-phenyl]-3-methyl-butyramide]"
4,< 1 µM,"COC(=O)CCCCC(=O)Nc1ccc(-n2nc3c4cccc(F)c4[nH]cc-3c2=O)cc1 [Example 6, 5-[4-(6-Fluoro-3-oxo-3,5-dihydro-pyrazolo[4,3-c]quinolin-2-yl)phenylcarbamoyl]-pentanoic acid methyl ester]"
5,1 to 10 µM,"CC(C)(C)C(=O)Nc1ccc(-n2nc3c4cccc(F)c4[nH]cc-3c2=O)cc1 [Example 7, N-[4-(6-Fluoro-3-oxo-3,5-dihydro-pyrazolo[4,3-c]quinolin-2-yl)-phenyl]-2,2-dimethyl-propionamide]"
6,1 to 10 µM,O=C(COCc1ccccc1)Nc1ccc(-n2nc3c4cccc(F)c4[nH]cc-3c2=O)cc1 [Example 8]
7,1 to 10 µM,O=C(CCl)Nc1ccc(-n2nc3c4cccc(F)c4[nH]cc-3c2=O)cc1 [Example 9]
8,1 to 10 µM,COC(=O)C(=O)Nc1ccc(-n2nc3c4cccc(F)c4[nH]cc-3c2=O)cc1 [Example 12]
9,1 to 10 µM,O=C(Nc1ccc(-n2nc3c4cccc(F)c4[nH]cc-3c2=O)cc1)c1ncoc1-c1ccccc1 [Example 15]
10,< 1 µM,CCC(CC)C(=O)Nc1ccc(-n2nc3c4cccc(F)c4[nH]cc-3c2=O)cc1 [Example 18]
11,< 1 µM,CC(=O)OC(C)(C)C(=O)Nc1ccc(-n2nc3c4cccc(F)c4[nH]cc-3c2=O)cc1 [Example 22]
12,< 1 µM,CC(C)C(=O)Nc1ccc(-n2nc3c4cccc(F)c4[nH]cc-3c2=O)cc1 [Example 24]

# Same assay, conditions: read-out: EC50
row,EC50,Structure (SMILES)
1,8 µM,O=C(Nc1ccc(-n2nc3c4cccc(F)c4[nH]cc-3c2=O)cc1)c1ncoc1-c1ccccc1 [Example 15]
2,1.9 µM,O=C(Cc1c(Cl)cccc1Cl)Nc1ccc(-n2nc3c4cccc(F)c4[nH]cc-3c2=O)cc1 [Example 21]
